Data taken from PMC9452538, “The antimicrobial peptide LI14 combats multidrug-resistant bacterial infections” (Communications Biology, 2022).
Values after ≈ are worked out from the molar mass of the structure shown. Read-outs that look alike come from different tables or passages of the source. Peptide text beside a SMILES is read from it.

Tests used:
S. aureus ATCC 29213 [1] = test: Resistance development study, serial passages; assay type: cell-based, Staphylococcus aureus; settings: 80 serial passages at sub-inhibitory concentration (0.5-fold MIC)
Method: The ability of LI14 peptide to induce resistance was studied as previously described. Resistance to the therapeutically important drugs rifampicin and ciprofloxacin was measured using S. aureus ATCC 29213 and E. coli ATCC 25922 as test strains. The middle and final MICs were monitored after eighty such serial passages exposed to the tested medicines (0.5-fold MIC), and the fold change in MIC increase was recorded.

S. aureus ATCC 29213 [2] = test: microbe, parasite or virus in culture; assay type: cell-based, Staphylococcus aureus; settings: ATCC 29213
Outline: (§1)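 Broth microdilution per CLSI 2021 guidelines. Exponential-phase bacteria were diluted 1:1000 into MHB, and 1.5 × 10^6 CFUs/mL suspension was mixed with serially varied peptide concentrations to determine MIC.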

MRSA T144 [3] = test: microbe, parasite or virus in culture; assay type: cell-based, Staphylococcus aureus; settings: T144
Outline: as §1

MRSA T144 [4] = test: Neutropenic mouse thigh infection model; assay type: in vivo, CD-1 mice; settings: 48 h; for Reduction in CFUs in thigh compared with vehicles: n = 6
Method: (§2) Female CD-1 mice (n = 6 biologically independent animals per group) were first given cyclophosphamide (two consecutive injections of 150 and 100 mg kg^−1 at 4 and 1 day before infection) to construct neutropenia models. The mice’s right thighs were then injected with 100 μL MRSA T144 or E. coli B2 suspensions (10^5 CFUs per mouse). Post-infection of 1 h, 100 μL LI14 peptide (10 or 20 mg/kg), ampicillin/rifampicin (20 mg/kg) or a combination of LI14 with ampicillin/ rifampicin (10 + 20 mg/kg) were given by intraperitoneal injection. All mice were euthanized 48 h after drug administration, and right thigh muscle tissue was removed aseptically, homogenized, serially diluted, and plated on MHA to qualify bacterial loads after overnight incubation at 37 °C.

E. coli B2 = test: Neutropenic mouse thigh infection model; assay type: in vivo, CD-1 mice; settings: 48 h; for Reduction in CFUs in thigh compared with vehicles: n = 6
Method: as §2

E. faecium 5F-10 = test: microbe, parasite or virus in culture; assay type: cell-based, Enterococcus faecium; settings: 5F-10
Outline: as §1

MRSA T144 or E. coli B2 = test: Rat skin wound infection model; assay type: in vivo, rats; settings: MRSA T144 or E. coli B2 infected skin wound; LI14 5 or 10 μg topically; 8 days; n = 4
Method: The rats (n = 4 biologically independent animals per group) were anesthetized and a 2 cm wound model was constructed on their back. Then, 100 μL of MRSA T144 or E. coli B2 cultures were dropped on the wounds (10^6 CFUs per mouse), respectively. At 1 h post-infection, 100 μL of LI14 peptide (5 or 10 μg), or the combination of LI14 peptide with ampicillin/rifampicin (5 + 5 μg) were gently inoculated over the scar with a pipette tip, respectively. Wound size was recorded for 8 days, and on the 8th day, the rats were euthanized, and wound tissue was removed aseptically to measure CFUs and for following hematoxylin and eosin (H&E) staining.
(a-d) Mouse skin wound infection models by MRSA T144 (n = 4 biologically independent animals per group). a Photographs of wounds treated with LI14 (5 μg and 10 μg) or in combination with ampicillin (5 + 5 μg) for 0, 4 and 8 days (scale bar, 1 cm). (b) The wound size at 0th, 4th and 8th day after infection by MRSA T144. (c) The subeschar bacterial colonies at 8th day. (d) H.E. staining for the histological change of skin wound at 8th day (scale bar, […]
(e-h) Mouse skin wound infection models by E. coli B2 (n = 4 biologically independent animals per group). (e) Photographs of wounds treated with LI14 (5 μg and 10 μg) or in combination with rifampicin for (5 + 5 μg) for 0, 4 and 8 days (scale bar, 1 cm). […]

MRSA T144 [5] = assay type: cell-based, Staphylococcus aureus; settings: MRSA T144
Method: MRSA T144 and E. coli B2 in the exponential growth phase were incubated with LI14 peptide supplemented with 10 mM Na^+, K^+, Mg^2+, 10% Dulbecco’s modified Eagle medium (DMEM), and 10% fetal bovine serum (FBS) for 16–18 h. The stability of LI14 was evaluated by the change of its antibacterial activity under different conditions.
LI14 were preincubated for 1 h at various temperatures (40–121 °C), pH (2–12), and proteases (pepsin, trypsin, and papain, final concentration 1 mg/mL). […] Following the incubation with the proteases, the leftover protease was precipitated with acetonitrile and removed by centrifugation at 3000 × g, followed by a MIC test.
Supplementary Table 4 Thermal, pH, salts and protease stability of AMPs against
MRSA T144 and E. coli B2 (MIC, μg/mL).
Treatment MRSA T144 E. coli B2

[6] = tested on: A. baumannii C222 (tet(X6)); test: microbe, parasite or virus in culture; assay type: cell-based, Acinetobacter baumannii; settings: C222 (tet(X6))
Outline: as §1

A. baumannii ATCC 19609 = test: microbe, parasite or virus in culture; assay type: cell-based, Acinetobacter baumannii; settings: ATCC 19609
Outline: as §1

## CC[C@H](C)[C@H](NC(=O)[C@H](CCCNC(=N)N)NC(=O)[C@H](CS)NC(=O)[C@H](CC(C)C)NC(=O)[C@H](CCCCN)NC(=O)[C@H](CCCCN)NC(=O)[C@H](CC(C)C)NC(=O)[C@@H](NC(=O)[C@H](CCCNC(=N)N)NC(=O)[C@H](CS)NC(=O)[C@H](CC(C)C)NC(=O)[C@H](CCCCN)NC(=O)[C@H](CCCCN)NC(=O)[C@@H](N)CC(C)C)[C@@H](C)CC)C(N)=O [LI14] (H-LKKLCRILKKLCRI-NH2)
S. aureus ATCC 29213 [1]
  Increase in MIC after serial passages: 8 fold
S. aureus ATCC 29213 [2]
  MIC: 8 µg/mL (≈ 4.63 µM)
MRSA T144 [3]
  MIC: 4 µg/mL (≈ 2.32 µM)
MRSA T144 [4]; LI14 10 mg/kg i.p., animal 1
  Bacterial load in thigh: 6.18 Log10CFUs/thigh
MRSA T144 [4]; LI14 10 mg/kg i.p., animal 2
  Bacterial load in thigh: 6.30 Log10CFUs/thigh
MRSA T144 [4]; LI14 10 mg/kg i.p., animal 3
  Bacterial load in thigh: 5.92 Log10CFUs/thigh
MRSA T144 [4]; LI14 10 mg/kg i.p., animal 4
  Bacterial load in thigh: 5.83 Log10CFUs/thigh
MRSA T144 [4]; LI14 10 mg/kg i.p., animal 5
  Bacterial load in thigh: 7.15 Log10CFUs/thigh
MRSA T144 [4]; LI14 10 mg/kg i.p., animal 6
  Bacterial load in thigh: 7.28 Log10CFUs/thigh
MRSA T144 [4]; LI14 10 mg/kg i.p.
  Reduction in CFUs in thigh compared with vehicles: ~ 2 log10
MRSA T144 [4]; LI14 20 mg/kg i.p., animal 1
  Bacterial load in thigh: 4.32 Log10CFUs/thigh
MRSA T144 [4]; LI14 20 mg/kg i.p., animal 2
  Bacterial load in thigh: 4.36 Log10CFUs/thigh
MRSA T144 [4]; LI14 20 mg/kg i.p., animal 3
  Bacterial load in thigh: 4.77 Log10CFUs/thigh
MRSA T144 [4]; LI14 20 mg/kg i.p., animal 4
  Bacterial load in thigh: 4.61 Log10CFUs/thigh
MRSA T144 [4]; LI14 20 mg/kg i.p., animal 5
  Bacterial load in thigh: 5.45 Log10CFUs/thigh
MRSA T144 [4]; LI14 20 mg/kg i.p., animal 6
  Bacterial load in thigh: 5.51 Log10CFUs/thigh
MRSA T144 [4]; LI14 20 mg/kg i.p.
  Reduction in CFUs in thigh compared with vehicles: 4 log10
E. coli B2; LI14 10 mg/kg i.p., animal 1
  Bacterial load in thigh: 5.99 Log10CFUs/thigh
E. coli B2; LI14 10 mg/kg i.p., animal 2
  Bacterial load in thigh: 5.91 Log10CFUs/thigh
E. coli B2; LI14 10 mg/kg i.p., animal 3
  Bacterial load in thigh: 6.58 Log10CFUs/thigh
E. coli B2; LI14 10 mg/kg i.p., animal 4
  Bacterial load in thigh: 6.66 Log10CFUs/thigh
E. coli B2; LI14 10 mg/kg i.p., animal 5
  Bacterial load in thigh: 7.36 Log10CFUs/thigh
E. coli B2; LI14 10 mg/kg i.p., animal 6
  Bacterial load in thigh: 7.31 Log10CFUs/thigh
E. coli B2; LI14 10 mg/kg i.p.
  Reduction in CFUs in thigh compared with vehicles: ~ 2 log10
E. coli B2; LI14 20 mg/kg i.p., animal 1
  Bacterial load in thigh: 4.93 Log10CFUs/thigh
E. coli B2; LI14 20 mg/kg i.p., animal 2
  Bacterial load in thigh: 4.99 Log10CFUs/thigh
E. coli B2; LI14 20 mg/kg i.p., animal 3
  Bacterial load in thigh: 4.71 Log10CFUs/thigh
E. coli B2; LI14 20 mg/kg i.p., animal 4
  Bacterial load in thigh: 4.79 Log10CFUs/thigh
E. coli B2; LI14 20 mg/kg i.p., animal 5
  Bacterial load in thigh: 5.69 Log10CFUs/thigh
E. coli B2; LI14 20 mg/kg i.p., animal 6
  Bacterial load in thigh: 5.66 Log10CFUs/thigh
E. coli B2; LI14 20 mg/kg i.p.
  Reduction in CFUs in thigh compared with vehicles: 4 log10
E. faecium 5F-10
  MIC: 64 µg/mL (≈ 37.1 µM)
MRSA T144 or E. coli B2
  Wound closure and number of colonies: distinctly improved wound closure and decreased the number of colonies
MRSA T144 [5]; Control
  MIC: 4 µg/mL (≈ 2.32 µM)
MRSA T144 [5]; peptide preincubated 1 h at 40℃
  MIC: 4 µg/mL (≈ 2.32 µM)
MRSA T144 [5]; peptide preincubated 1 h at 60℃
  MIC: 4 µg/mL (≈ 2.32 µM)
MRSA T144 [5]; peptide preincubated 1 h at 80℃
  MIC: 4 µg/mL (≈ 2.32 µM)
MRSA T144 [5]; peptide preincubated 1 h at pH 8, readjusted to pH 7.2
  MIC: 4 µg/mL (≈ 2.32 µM)
MRSA T144 [5]; peptide preincubated 1 h at pH 12, readjusted to pH 7.2
  MIC: 4 µg/mL (≈ 2.32 µM)
MRSA T144 [5]; peptide preincubated 1 h with Pepsin 1 mg/mL
  MIC: 4 µg/mL (≈ 2.32 µM)
[6]
  MIC: 16 µg/mL (≈ 9.26 µM)
A. baumannii ATCC 19609
  MIC: 8 µg/mL (≈ 4.63 µM)
